According to publication PMC11784026, “Phase 1 study of the safety, tolerability, and pharmacokinetics of a synthetic macrocyclic peptide antibiotic (BRII-693) in healthy adult participants” (Antimicrobial Agents and Chemotherapy, 2024):
Where two headings read alike, the source gives them in different places. Marks after values point to notes of the source that are not given here. Where a SMILES comes first, the peptide text is derived from it. Bridges are numbered along the chain shown (N, C = ends). [ ]: non-standard residue; d: D form. The star is where a group is joined. X1 = O=C(c1ccc(Cl)cc1Cl)*; Dab = NCC[C@H](N)C(=O)O; Abu = CC[C@H](N)C(=O)O; Dap = NC[C@H](N)C(=O)O

Legend:
[1] = SAD; for fe0–48h: % of dose in urine as unchanged drug over 48 h; for CLR: renal clearance
Experimental: During the SAD phase of the study, cohort dosing of 10, 25, 50, 100, 200, 300, and 400 mg of BRII-693 was evaluated in a sequential manner. Each of the seven SAD cohorts enrolled eight eligible participants (six active; two placebo). On day 1, participants received a single IV dose of BRII-693 or placebo as a 1-hour infusion. Participants were then discharged on day 3.
For the SAD cohorts, blood samples for the measurement of BRII-693 in plasma were obtained before dosing and at 0.5 (mid-infusion), 1 (end of infusion), 1.25, 1.5, 2, 4, 6, 8, 12, 24, 36, and 48 hours following the start of dosing infusion. Urine samples were collected for PK assessment before dosing and at the time intervals of 0–4, 4–8, 8–12, 12–24, 24–36, and 36–48 hours after the start of dosing infusion.
All blood samples were collected into EDTA-containing vials, immediately placed on ice, and centrifuged at 3,000× g for approximately 10 minutes at 4°C. Supernatant plasma was transferred to two pre-chilled cryopreservation vials (at least 1.0 mL per vial) and stored at −80°C until shipped to the analytical laboratory. Urine samples collected for each time interval were refrigerated, aliquoted, and stored at −80°C until shipped to the analytical laboratory. Plasma and urine samples were analyzed for BRII-693 concentrations using validated high-performance liquid chromatography with detection by mass spectrometry method (BioAgilytix, San Diego, CA). The assay range was 50.0–50,000 ng/mL in both plasma and urine.
Area under the concentration-time curve (AUC) from time zero to the time of the last quantifiable concentration (AUC0–last), AUC from time zero to infinity (AUC0–inf), AUC within a dosing interval of 6 hours (AUC0–6h), maximum observed concentration (Cmax), time to reach maximum concentration (Tmax), apparent terminal half-life (t1/2), total clearance (CL), volume of distribution during terminal phase (Vz), and accumulation ratio based on AUC (ARAUC) were determined for BRII-693 in plasma. Urine parameters included amount and percentage of dose recovered in urine as unchanged drug over each collection interval and cumulatively and renal clearance (CLR). PK parameters were determined using noncompartmental methods in Phoenix WinNonlin (Certara, Version 8.3).

[2] = Plasma pharmacokinetics after multiple ascending doses (MAD), phase 1; format: in vivo, human (healthy adult participants); conditions: for Vd: read-out: VZ
Experimental: Participants were discharged on day 11.
Plasma and urine PK parameters were summarized for each cohort using descriptive statistics. Analyses using linear models were performed to assess dose proportionality (both single-dose cohorts 1–7 and multiple-dose cohorts 8–10). Dose-linearity of Cmax and AUC across the dose range was assessed by fitting the power model with ln-transformed parameter as response variables and ln-transformed dose (continuous variable) as a fixed effect. For each PK parameter and study phase (SAD or MAD) separately, a pooled estimate (across all dose cohorts) of slope, corresponding 95% confidence interval (CI), and between-subject coefficient of variation (CV) were calculated. Dose proportionality was to be concluded if the 95% CI for the slope spans 1. […] Least square means (LSMs) and difference in LSMs with 90% CI were calculated; these values were then back exponentiated to give the geometric LSM, geometric mean ratio, and 90% CI.

[3] = single 1-h IV infusion 10 mg, n = 5, arithmetic mean ± SD
[4] = single 1-h IV infusion 25 mg, n = 5, arithmetic mean ± SD
[5] = single 1-h IV infusion 50 mg, n = 6, arithmetic mean ± SD
[6] = single 1-h IV infusion 100 mg, n = 6, arithmetic mean ± SD
[7] = single 1-h IV infusion 200 mg, n = 6, arithmetic mean ± SD
[8] = single 1-h IV infusion 300 mg, n = 6, arithmetic mean ± SD
[9] = single 1-h IV infusion 400 mg, n = 6, arithmetic mean ± SD
[10] = human, plasma, iv, 100 mg, First q6h dose (day 3), 7-day MAD 100 mg q6h × 7, n = 3, arithmetic mean ± SD
[11] = human, plasma, iv, 100 mg, Last q6h dose (day 9), 7-day MAD 100 mg q6h × 7, n = 6, arithmetic mean ± SD

What does the source list for CC[C@@H]1NC(=O)[C@@H](CC(C)C)NC(=O)[C@H](CCN)NC(=O)[C@@H](NC(=O)[C@H](CN)NC(=O)[C@@H](NC(=O)[C@H](CCN)NC(=O)c2ccc(Cl)cc2Cl)[C@@H](C)O)CCNC(=O)[C@H]([C@@H](C)O)NC(=O)[C@H](CCN)NC(=O)[C@H](CCN)NC1=O [BRII-693] (X1-[Dab]T[Dap][Dab][Dab][dL][Abu][Dab][Dab]T; lactam 4-C; N-terminus assumed)?
fe0–48h [1, 3]: 0.95 ± 0.50^b %; CLR [1, 3]: 0.036 ± 0.018^b L/h; fe0–48h [1, 4]: 5.73 ± 3.67%; CLR [1, 4]: 0.22 ± 0.12 L/h; fe0–48h [1, 5]: 21.5 ± 9.19%; CLR [1, 5]: 0.86 ± 0.33 L/h; fe0–48h [1, 6]: 40.2 ± 5.40%; CLR [1, 6]: 1.51 ± 0.31 L/h; fe0–48h [1, 7]: 47.6 ± 15.6%; CLR [1, 7]: 1.92 ± 0.80 L/h; fe0–48h [1, 8]: 57.5 ± 16.2%; CLR [1, 8]: 2.44 ± 0.50 L/h; fe0–48h [1, 9]: 68.4 ± 11.4%; CLR [1, 9]: 2.68 ± 0.42 L/h; Tmax ([2]; First q6h dose (day 1), 14-day MAD 150 mg q6h × 14, Chinese, n = 10, median (range)): 1.08 (1.02, 1.12) h; Tmax ([2]; First q6h dose (day 1), 14-day MAD 150 mg q6h × 14, non-Chinese, n = 10, median (range)): 1.07 (1.03, 1.25) h; Tmax ([2]; First q6h dose (day 3), 7-day MAD 100 mg q6h × 7, n = 6, median (range)): 1.13 (1.08, 1.25) h; t1/2 ([2]; First q6h dose (day 3), 7-day MAD 150 mg q6h × 7, n = 5, arithmetic mean ± SD): 2.40 ± 0.21 h; Tmax ([2]; First q6h dose (day 3), 7-day MAD 150 mg q6h × 7, n = 5, median (range)): 1.07 (1.02, 1.15) h; ARAUC (accumulation ratio based on AUC) ([2]; Last q6h dose (day 9), 7-day MAD 100 mg q6h × 7, n = 6, arithmetic mean ± SD): 1.59 ± 0.14; ARAUC (accumulation ratio based on AUC) ([2]; Last q6h dose (day 9), 7-day MAD 150 mg q6h × 7, n = 5, arithmetic mean ± SD): 1.48 ± 0.10; ARAUC (accumulation ratio based on AUC) ([2]; Last q6h dose (day 9), 7-day MAD 200 mg q6h × 7, n = 5, arithmetic mean ± SD): 1.69 ± 0.34; ARAUC (accumulation ratio based on AUC) ([2]; Last q6h dose (day 14), 14-day MAD 150 mg q6h × 14, Chinese, n = 6, arithmetic mean ± SD): 1.58 ± 0.19; Tmax ([2]; Last q6h dose (day 14), 14-day MAD 150 mg q6h × 14, Chinese, n = 6, median (range)): 1.07 (1.05, 1.22) h; ARAUC (accumulation ratio based on AUC) ([2]; Last q6h dose (day 14), 14-day MAD 150 mg q6h × 14, non-Chinese, n = 10, arithmetic mean ± SD): 1.58 ± 0.17; Tmax ([2]; Last q6h dose (day 14), 14-day MAD 150 mg q6h × 14, non-Chinese, n = 10, median (range)): 1.07 (1.02, 1.10) h; Geometric mean ratio for AUC0-6h, Chinese vs non-Chinese ([2]; after the first dose on day 1, 150 mg q6h × 14, 90% CI: 0.966, 1.20): 1.08; Geometric mean ratio for Cmax, Chinese vs non-Chinese ([2]; after the first dose on day 1, 150 mg q6h × 14, 90% CI: 0.970, 1.24): 1.10; Geometric mean ratio for AUC0-6h, Chinese vs non-Chinese ([2]; after the last dose on Day 14, 150 mg q6h × 14, 90% CI 0.926, 1.25): 1.08; Geometric mean ratio for Cmax, Chinese vs non-Chinese ([2]; after the last dose on Day 14, 150 mg q6h × 14, 90% CI 0.935, 1.20): 1.06; Cmax ([2]; human, plasma, iv, 100 mg, First q6h dose (day 3), 7-day MAD 100 mg q6h × 7, 1-h IV infusion, plasma, n = 6, arithmetic mean ± SD): 5960 ± 710 ng/mL; clearance [2, 10]: 80.5 mL/min; Vd [2, 10]: 17.1 ± 2.72 L; half-life ([2]; human, plasma, iv, 100 mg, First q6h dose (day 3), 7-day MAD 100 mg q6h × 7, n = 6, arithmetic mean ± SD): 173 ± 30 min; AUC(0-t) ([2]; human, plasma, iv, 100 mg, First q6h dose (day 3), 7-day MAD 100 mg q6h × 7, n = 6, arithmetic mean ± SD, read-out: AUC0-6h): 18000 ± 2380 ng·h/mL; clearance [2, 11]: 59.5 mL/min; half-life [2, 11]: 455 ± 103 min; AUC(0-t) ([2]; human, plasma, iv, 100 mg, Last q6h dose (day 9), 7-day MAD 100 mg q6h × 7, n = 6, arithmetic mean ± SD, read-out: AUC0–6h): 28600 ± 4480 ng·h/mL; Vd [2, 11]: 38.4 ± 8.18 L; Tmax ([2]; human, plasma, iv, 100 mg, Last q6h dose (day 9), 7-day MAD 100 mg q6h × 7, n = 6, median (range), read-out: Tmax): 1.18 h; Cmax ([2]; human, plasma, iv, 100 mg, Last q6h dose (day 9), 7-day MAD 100 mg q6h × 7, plasma, n = 6, arithmetic mean ± SD): 8120 ± 1000 ng/mL
